Read-outs that look alike come from different tables or passages of the source.
Columns and labels:
[1] = Dissolution rates, Paddle Method, Apparatus 2 USP XXI, artificial gastric and intestinal juice; assay type: physicochemical; conditions: 37 °C, 100 rpm, equ. 400 mg
Protocol: The dissolution tests were performed in 0.027N HCl and 0.06N HCl (artificial gastric juice) and in artificial intestinal juice, pH 6.0, at the temperature of 37° C. The volume of the artificial biological fluids was 1000 ml. The stirring rate of the paddle mixer was 100 rpm.

[2] = In vitro ibuproxam release from pharmaceutical forms, Paddle Method USP XXI; assay type: physicochemical; conditions: 0.027 HCl, 37 °C, 100 rpm; ibuproxam and Ibudros 400 mg, complex equiv. to 200 mg; mean of 3
[3] = In vitro diffusion/resorption test, Stricker method, Sartorius model; assay type: in vitro ADME; conditions: for Papp: not told, read-out: In vitro diffusion rate constant (kd) (converted)
Protocol: The resorption tests were performed according to the Stricker method on a Sartorius Dissolution Model (Sartorius Dissolution Model, Instruction Manual, Sartorius Membranfilter, Gottingen 1972). The diffusion rates of ibuproxam through artificial lipid membranes at different pH values were determined. On the basis of the found diffusion rate constants (kd) the in vitro resorption rate constants (ka) were calculated.

[4] = Dissolution profiles/rates on Sartorius Dissolution Model SM 16751; assay type: physicochemical
Protocol: The quantities of the dissolved (MG) and of the resorbed (Mi) active ingredient were determined using a Sartorius Dissolution Model SM 16751 (Sartorius Dissolution Model, Instruction Manual, Sartorius Membranfilter, Gottingen 1972).

SMILES: CC(C)Cc1ccc(C(C)C(=O)NO)cc1 (stereo not shown) [ibuproxam, 2-(4-isobutylphenyl)-propiohydroxamic acid]
- % of dissolved ibuproxam ([1]; 0.027 N HCl pH 1.6, 5 min): 21.4%
- % of dissolved ibuproxam ([1]; 0.027 N HCl pH 1.6, 15 min): 28.1%
- % of dissolved ibuproxam ([1]; 0.027 N HCl pH 1.6, 30 min): 33.3%
- % of dissolved ibuproxam ([1]; 0.027 N HCl pH 1.6, 45 min): 37.4%
- % of dissolved ibuproxam ([1]; 0.027 N HCl pH 1.6, 60 min): 43.1%
- % of dissolved ibuproxam ([1]; 0.06 N HCl pH 1.2, 5 min): 21.8%
- % of dissolved ibuproxam ([1]; 0.06 N HCl pH 1.2, 15 min): 29.8%
- % of dissolved ibuproxam ([1]; 0.06 N HCl pH 1.2, 30 min): 37.4%
- % of dissolved ibuproxam ([1]; 0.06 N HCl pH 1.2, 45 min): 40.4%
- % of dissolved ibuproxam ([1]; 0.06 N HCl pH 1.2, 60 min): 41.7%
- % of dissolved ibuproxam ([1]; artificial intestinal juice pH 6.0, 5 min): 10.2%
- % of dissolved ibuproxam ([1]; artificial intestinal juice pH 6.0, 15 min): 21.2%
- % of dissolved ibuproxam ([1]; artificial intestinal juice pH 6.0, 30 min): 27.7%
- % of dissolved ibuproxam ([1]; artificial intestinal juice pH 6.0, 45 min): 32.7%
- % of dissolved ibuproxam ([1]; artificial intestinal juice pH 6.0, 60 min): 33.3%
- % dissolved within 15 min [2]: 35.8%
- % dissolved within 30 min [2]: 43.4%
- % dissolved within 60 min [2]: 54.5%
- Papp ([3]; pH 1.2, average of 4 tests): 235 ×10⁻⁶ cm/s
- Papp ([3]; pH 3.0, average of 4 tests): 238 ×10⁻⁶ cm/s
- Papp ([3]; pH 6.0, average of 4 tests): 233 ×10⁻⁶ cm/s
- In vitro resorption rate constant (ka) ([3]; pH 1.2, calculated from kd with G = 4.3): 0.060 min⁻¹
- In vitro resorption rate constant (ka) ([3]; pH 6.0, calculated from kd with G = 10.0): 0.138 min⁻¹
- dissolution rate (kdiss) [4]: 0.00017 s⁻¹
- effect of pH of the biological fluids on dissolution rate, in words [4]: does not affect the dissolution rate

Source: US4952565A (priority 1986, dated 1990)
